From ChEMBL document CHEMBL1201862, “PubChem BioAssay data set” (2004)
Calls of active or inactive are those of the source.

What was measured:
[1] = biological target: T1, Trace amine-associated receptor 1 (Homo sapiens, UniProt Q96RJ0); test: Fluorescence-based cell-based high throughput dose response assay to identify agonists of the human trace amine associated receptor 1 (TAAR1).; assay type: functional
T1 sequence (Q96RJ0 whole entry): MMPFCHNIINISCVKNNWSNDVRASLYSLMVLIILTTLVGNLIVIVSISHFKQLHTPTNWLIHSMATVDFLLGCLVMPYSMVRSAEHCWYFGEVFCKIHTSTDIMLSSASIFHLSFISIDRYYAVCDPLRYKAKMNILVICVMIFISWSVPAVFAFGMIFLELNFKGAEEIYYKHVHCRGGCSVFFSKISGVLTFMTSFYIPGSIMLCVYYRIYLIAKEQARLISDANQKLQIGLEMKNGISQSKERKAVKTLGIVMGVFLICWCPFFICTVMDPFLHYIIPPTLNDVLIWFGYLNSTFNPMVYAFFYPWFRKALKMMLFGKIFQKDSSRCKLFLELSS

[2] = biological target: Induced myeloid leukemia cell differentiation protein Mcl-1 (Homo sapiens, UniProt Q07820); assay type: functional
[3] = biological target: T1, Trace amine-associated receptor 1; test: Counterscreen for agonists of the human trace amine associated receptor 1 (hTAAR1): Fluorescence-based cell-based high throughput dose response assay to identify hTAAR1 agonist that also desensitize TAAR1 receptor response.; assay type: functional
cells [4] = assay type: functional, cell-based
cells [5] = assay type: functional, cell-based; remark: listed apart in the source
[6] = AlphaScreen signal interference compounds, dose response, artefact control for ARNT-TACC3 interaction inhibitor project, biochemical, luminescence, cherry-pick (AID 651705); assay type: functional;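 note: AlphaScreen bead proximity signal that flags compounds interfering with the detection technology; potency reflects signal decrease which marks the compound as an assay artifact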
cells [7] = assay type: functional
Nonstructural protein 1 = Nonstructural protein 1 (Influenza A virus, UniProt Q194T2); assay type: functional, Influenza A virus (A/California/07/2009(H1N1))
Beta-galactosidase = Beta-galactosidase (Escherichia coli, UniProt Q8VNN2); test: Dose response counterscreen for EBI2 assay utilizing the enzyme, b-galactosidase.; assay type: functional
[8] = biological target: T2, Sentrin-specific protease 8 (Homo sapiens, UniProt Q96LD8); test: SENP8 protease inhibitors, SAR follow-up, biochemical, luminescence (AID 504501); assay type: functional
T2 sequence (Q96LD8 whole entry): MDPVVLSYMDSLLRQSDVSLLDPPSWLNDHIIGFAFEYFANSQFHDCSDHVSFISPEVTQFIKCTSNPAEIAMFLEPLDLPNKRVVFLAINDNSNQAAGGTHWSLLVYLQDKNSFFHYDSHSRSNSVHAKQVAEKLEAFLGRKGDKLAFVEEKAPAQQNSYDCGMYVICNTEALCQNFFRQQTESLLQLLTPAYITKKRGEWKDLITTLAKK

[9] = biological target: T3, Sentrin-specific protease 7 (Homo sapiens, UniProt Q9BQF6); test: SENP7 protease inhibitors, SAR follow-up, biochemical, luminescence (AID 504497); assay type: functional
T3 sequence (Q9BQF6 whole entry): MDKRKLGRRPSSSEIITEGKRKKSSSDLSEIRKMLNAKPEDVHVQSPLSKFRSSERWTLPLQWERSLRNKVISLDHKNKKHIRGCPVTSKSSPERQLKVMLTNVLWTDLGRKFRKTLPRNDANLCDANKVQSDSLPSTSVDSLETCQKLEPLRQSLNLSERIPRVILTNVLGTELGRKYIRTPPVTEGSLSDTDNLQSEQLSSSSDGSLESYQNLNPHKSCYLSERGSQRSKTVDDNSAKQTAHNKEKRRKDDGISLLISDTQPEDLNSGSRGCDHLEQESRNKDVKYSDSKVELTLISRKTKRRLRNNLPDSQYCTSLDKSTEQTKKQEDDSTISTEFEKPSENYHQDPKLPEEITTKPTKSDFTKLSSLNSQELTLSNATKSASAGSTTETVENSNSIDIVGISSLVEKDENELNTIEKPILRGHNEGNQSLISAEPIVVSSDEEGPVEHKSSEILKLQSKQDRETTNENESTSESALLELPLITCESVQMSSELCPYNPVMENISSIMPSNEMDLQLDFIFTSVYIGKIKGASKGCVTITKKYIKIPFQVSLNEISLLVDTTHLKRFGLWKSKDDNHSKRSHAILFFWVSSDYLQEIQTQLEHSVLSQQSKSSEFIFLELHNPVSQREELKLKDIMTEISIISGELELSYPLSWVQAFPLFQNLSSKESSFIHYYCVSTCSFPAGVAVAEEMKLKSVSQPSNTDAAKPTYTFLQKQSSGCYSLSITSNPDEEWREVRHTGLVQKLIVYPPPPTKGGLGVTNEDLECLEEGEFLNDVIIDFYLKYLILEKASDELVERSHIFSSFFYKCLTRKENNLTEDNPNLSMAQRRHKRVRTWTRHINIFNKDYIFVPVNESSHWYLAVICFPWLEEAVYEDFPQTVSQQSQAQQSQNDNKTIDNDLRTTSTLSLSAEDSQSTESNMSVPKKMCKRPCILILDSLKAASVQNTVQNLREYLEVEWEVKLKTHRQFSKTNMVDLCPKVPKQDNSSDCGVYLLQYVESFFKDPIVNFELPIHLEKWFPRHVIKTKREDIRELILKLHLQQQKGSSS

[10] = biological target: T3, Sentrin-specific protease 7; assay type: functional
[11] = biological target: T2, Sentrin-specific protease 8; assay type: functional
Cysteine protease ATG4B = biological target: T4, Cysteine protease ATG4B (Homo sapiens, UniProt Q9Y4P1); assay type: functional;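 note: Fluorescence-based dose-response confirmation assay measuring inhibition of ATG4B activity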
T4 sequence (Q9Y4P1 whole entry): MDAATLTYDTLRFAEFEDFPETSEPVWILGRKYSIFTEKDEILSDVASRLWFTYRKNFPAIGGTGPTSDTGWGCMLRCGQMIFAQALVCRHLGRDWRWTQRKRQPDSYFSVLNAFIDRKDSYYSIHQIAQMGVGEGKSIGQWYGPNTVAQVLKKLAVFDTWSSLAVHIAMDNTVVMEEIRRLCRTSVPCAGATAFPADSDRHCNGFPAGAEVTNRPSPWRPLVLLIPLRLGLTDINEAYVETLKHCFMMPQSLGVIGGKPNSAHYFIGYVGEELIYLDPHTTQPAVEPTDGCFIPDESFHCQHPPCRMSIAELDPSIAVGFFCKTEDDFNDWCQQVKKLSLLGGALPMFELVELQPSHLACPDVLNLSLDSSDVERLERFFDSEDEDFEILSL

Caspase-3 [12] = biological target: T5, Caspase-3 (Homo sapiens, UniProt P42574); test: SAR Analysis of small molecule inhibitors of Sentrin-specific proteases (SENPs) using a Caspase-3 Selectivity assay. [Related pubchem assays (depositor defined):AID2540, AID2599, AID434973, AID489001]; assay type: functional
T5 sequence (P42574 whole entry): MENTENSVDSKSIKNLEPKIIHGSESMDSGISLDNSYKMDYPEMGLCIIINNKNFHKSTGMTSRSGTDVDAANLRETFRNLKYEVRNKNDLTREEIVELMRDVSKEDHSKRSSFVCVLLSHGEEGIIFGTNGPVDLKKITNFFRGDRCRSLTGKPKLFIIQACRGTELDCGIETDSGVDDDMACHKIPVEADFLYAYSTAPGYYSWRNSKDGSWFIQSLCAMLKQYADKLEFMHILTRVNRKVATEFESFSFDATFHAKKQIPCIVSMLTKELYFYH

[13] = biological target: T6, Sentrin-specific protease 6 (Homo sapiens, UniProt Q9GZR1); assay type: functional
T6 sequence (Q9GZR1 whole entry): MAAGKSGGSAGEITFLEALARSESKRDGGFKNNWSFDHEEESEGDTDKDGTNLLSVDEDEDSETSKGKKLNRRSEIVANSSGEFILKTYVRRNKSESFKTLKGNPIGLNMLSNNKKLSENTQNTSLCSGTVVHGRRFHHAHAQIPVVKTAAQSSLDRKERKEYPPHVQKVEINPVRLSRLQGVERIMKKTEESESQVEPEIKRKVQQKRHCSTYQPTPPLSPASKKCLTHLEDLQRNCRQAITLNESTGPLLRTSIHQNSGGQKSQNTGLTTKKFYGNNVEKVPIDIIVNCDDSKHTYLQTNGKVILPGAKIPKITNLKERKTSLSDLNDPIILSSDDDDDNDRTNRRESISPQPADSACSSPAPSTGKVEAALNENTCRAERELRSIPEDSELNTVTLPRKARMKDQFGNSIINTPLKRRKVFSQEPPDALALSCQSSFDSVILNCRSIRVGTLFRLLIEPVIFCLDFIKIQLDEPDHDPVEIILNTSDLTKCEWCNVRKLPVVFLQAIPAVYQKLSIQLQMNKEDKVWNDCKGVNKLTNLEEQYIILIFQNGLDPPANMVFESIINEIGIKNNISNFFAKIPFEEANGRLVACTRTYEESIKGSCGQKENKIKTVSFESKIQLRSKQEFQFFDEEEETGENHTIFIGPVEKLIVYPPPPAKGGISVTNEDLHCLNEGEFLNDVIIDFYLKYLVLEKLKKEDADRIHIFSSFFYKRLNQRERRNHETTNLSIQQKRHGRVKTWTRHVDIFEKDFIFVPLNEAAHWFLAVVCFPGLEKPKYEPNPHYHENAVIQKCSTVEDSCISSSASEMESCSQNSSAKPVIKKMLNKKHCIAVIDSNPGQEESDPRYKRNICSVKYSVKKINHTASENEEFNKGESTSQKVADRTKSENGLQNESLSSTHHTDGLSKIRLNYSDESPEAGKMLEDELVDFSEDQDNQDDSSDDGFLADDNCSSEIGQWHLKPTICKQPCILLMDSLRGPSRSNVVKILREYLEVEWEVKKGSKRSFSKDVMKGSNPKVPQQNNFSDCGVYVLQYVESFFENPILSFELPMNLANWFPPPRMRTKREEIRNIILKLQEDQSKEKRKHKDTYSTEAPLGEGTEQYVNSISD

Phospholipase A2 = Phospholipase A2 (Homo sapiens, UniProt P04054); assay type: functional;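 note: confirmatory dose-response counterscreen on phospholipase A2, testing hits that came from an ultra-high-throughput screen for ATG4B inhibitors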
[14] = biological target: T6, Sentrin-specific protease 6; test: SAR Analysis of small molecule inhibitors of Sentrin-specific protease 6 (SENP6) using a Luminescent assay. [Related pubchem assays (depositor defined):AID2582, AID2599]; assay type: functional
Caspase-3 [15] = biological target: T5, Caspase-3; assay type: functional
[16] = HEp-2 cell cytotoxicity, dose response, cytotoxicity control for RSV inhibitor project, HTS (AID 2410); assay type: functional; details: human respiratory syncytial virus
[17] = biological target: T7, Fructose-bisphosphate aldolase (Mycobacterium tuberculosis, UniProt P9WQA3); test: Fluorescence-based biochemical high throughput dose response assay for inhibitors of the fructose-bisphosphate aldolase (FBA) of M. tuberculosis.; assay type: functional
T7 sequence (P9WQA3 whole entry): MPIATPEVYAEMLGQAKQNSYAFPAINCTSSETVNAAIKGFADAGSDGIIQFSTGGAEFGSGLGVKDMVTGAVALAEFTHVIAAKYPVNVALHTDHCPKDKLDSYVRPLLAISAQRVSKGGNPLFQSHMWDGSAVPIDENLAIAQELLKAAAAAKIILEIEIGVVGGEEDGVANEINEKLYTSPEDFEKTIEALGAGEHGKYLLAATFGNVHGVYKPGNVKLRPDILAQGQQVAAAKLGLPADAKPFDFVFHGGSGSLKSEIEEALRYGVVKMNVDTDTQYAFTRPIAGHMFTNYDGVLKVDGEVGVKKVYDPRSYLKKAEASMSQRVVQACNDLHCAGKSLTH

Chain of Beta-galactosidase (Q8VNN2 whole entry): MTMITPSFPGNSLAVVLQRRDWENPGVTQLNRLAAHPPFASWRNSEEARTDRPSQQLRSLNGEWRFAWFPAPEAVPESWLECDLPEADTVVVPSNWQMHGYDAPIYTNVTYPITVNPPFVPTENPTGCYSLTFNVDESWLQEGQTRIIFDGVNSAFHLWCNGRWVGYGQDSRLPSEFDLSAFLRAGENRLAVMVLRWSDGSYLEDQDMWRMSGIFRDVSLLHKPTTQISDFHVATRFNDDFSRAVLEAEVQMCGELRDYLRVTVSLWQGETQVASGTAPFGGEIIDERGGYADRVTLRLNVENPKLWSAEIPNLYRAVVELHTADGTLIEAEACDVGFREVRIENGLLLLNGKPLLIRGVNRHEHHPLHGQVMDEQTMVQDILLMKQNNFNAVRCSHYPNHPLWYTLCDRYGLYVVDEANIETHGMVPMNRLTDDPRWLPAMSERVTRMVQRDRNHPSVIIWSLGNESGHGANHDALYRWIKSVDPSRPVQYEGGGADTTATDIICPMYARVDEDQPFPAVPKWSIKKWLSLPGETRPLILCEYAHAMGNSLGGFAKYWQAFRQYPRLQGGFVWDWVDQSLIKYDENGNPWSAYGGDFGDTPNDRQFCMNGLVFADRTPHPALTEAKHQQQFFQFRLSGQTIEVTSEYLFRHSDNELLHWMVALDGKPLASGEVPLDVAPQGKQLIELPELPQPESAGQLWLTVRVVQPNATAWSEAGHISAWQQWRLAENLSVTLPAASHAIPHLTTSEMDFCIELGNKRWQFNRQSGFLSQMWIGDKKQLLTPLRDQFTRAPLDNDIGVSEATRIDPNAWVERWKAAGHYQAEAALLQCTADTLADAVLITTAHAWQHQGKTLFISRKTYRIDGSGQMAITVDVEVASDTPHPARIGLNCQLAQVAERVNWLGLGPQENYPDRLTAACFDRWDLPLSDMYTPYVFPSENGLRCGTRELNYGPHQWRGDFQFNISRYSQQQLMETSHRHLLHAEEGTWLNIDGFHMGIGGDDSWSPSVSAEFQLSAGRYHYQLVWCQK
Chain of Induced myeloid leukemia cell differentiation protein Mcl-1 (Q07820 whole entry): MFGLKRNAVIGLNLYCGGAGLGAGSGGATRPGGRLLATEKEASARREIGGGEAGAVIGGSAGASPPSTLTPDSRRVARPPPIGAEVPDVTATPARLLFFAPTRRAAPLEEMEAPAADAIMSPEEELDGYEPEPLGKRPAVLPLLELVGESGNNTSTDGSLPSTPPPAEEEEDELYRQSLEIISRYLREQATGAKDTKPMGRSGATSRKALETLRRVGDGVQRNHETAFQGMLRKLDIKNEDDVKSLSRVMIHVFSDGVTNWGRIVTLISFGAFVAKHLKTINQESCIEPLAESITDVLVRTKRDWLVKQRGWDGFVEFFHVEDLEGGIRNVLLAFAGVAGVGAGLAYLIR
Chain of Phospholipase A2 (P04054 whole entry): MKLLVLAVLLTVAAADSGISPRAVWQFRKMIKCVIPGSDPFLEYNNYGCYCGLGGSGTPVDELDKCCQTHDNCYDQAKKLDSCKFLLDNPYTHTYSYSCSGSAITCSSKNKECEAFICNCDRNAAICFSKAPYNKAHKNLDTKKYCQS
Chain of Nonstructural protein 1 (Q194T2 whole entry): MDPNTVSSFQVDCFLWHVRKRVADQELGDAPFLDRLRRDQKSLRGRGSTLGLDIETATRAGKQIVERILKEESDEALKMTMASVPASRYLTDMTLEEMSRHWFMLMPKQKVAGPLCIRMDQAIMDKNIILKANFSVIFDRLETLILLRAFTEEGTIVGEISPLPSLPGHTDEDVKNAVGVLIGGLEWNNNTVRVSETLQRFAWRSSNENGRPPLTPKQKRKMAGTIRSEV

Structure (SMILES): COc1cc(C(c2nnnn2C2CCCC2)N2CCc3ccccc3C2)ccc1O (stereo unspecified)
- EC50 [1]: 0.496 µM (active)
- IC50 [2]: 12.8 µM (active)
- IC50 [3]: 1.33 µM (active)
- EC50 (cells [4]): > 29.9 µM (inactive)
- IC50 (cells [5]): > 29.9 µM (inactive)

Structure (SMILES): COc1ccc(C(=O)Nc2nnc(C3=COCCO3)o2)cc1
- AC50 [6]: 107 µM (active)
- IC50 (cells [7]): 5.45 µM (active)

Structure (SMILES): c1ccc(CNCCN2CCNCC2)nc1
- AC50 [6]: 121 µM (active)
- IC50 (Nonstructural protein 1): 7.87 µM (active)

Structure (SMILES): COc1cc(OC)c(C(=O)OCC(=O)Nc2nnc(-c3ccccc3)o2)cc1OC
- AC50 [6]: 112 µM (active)

Structure (SMILES): O=C(NCCc1ccccc1)c1ccc([N+](=O)[O-])cc1
- EC50 [1]: 2.32 µM (active)
- IC50 [3]: 7.32 µM (active)
- EC50 (cells [4]): > 29.9 µM (inactive)
- IC50 (cells [5]): > 29.9 µM (inactive)

Structure (SMILES): O=C(c1cc2cc(Cl)ccc2[nH]1)N1CCN(c2ccccc2F)CC1
- IC50 (Beta-galactosidase): > 80 µM (inactive)

Structure (SMILES): CC(C)(C)c1ccc2c(c1)C(=O)c1ccccc1C2=O
- IC50 [8]: 1.12 µM (active)
- IC50 [9]: 0.635 µM (active)
- IC50 [10]: > 100 µM (inactive)
- IC50 [11]: > 100 µM (inactive)
- IC50 (Cysteine protease ATG4B): 9.47 µM (active)
- IC50 (Caspase-3 [12]): 0.934 µM (active)
- IC50 [13]: 4.05 µM (active)
- IC50 (Phospholipase A2): 6.46 µM (active)
- IC50 [14]: 0.927 µM (active)
- IC50 (Caspase-3 [15]): > 100 µM (inactive)

Structure (SMILES): COc1ccc(C2=NN(C(=O)CSc3cn(C)c4ccccc34)C(c3ccc(OC)cc3)C2)cc1 (stereo unspecified)
- IC50 (Beta-galactosidase): > 80 µM (inactive)
- CC50 [16]: 30.2 µM (active)

Structure (SMILES): Cc1cc(=O)oc2cc(OCC(=O)N3CCCC3)ccc12
- IC50 [17]: 2.54 µM (active)

Structure (SMILES): CC(Oc1ccc2c(c1)oc(=O)c1ccccc12)C(=O)NCCCN1CCOCC1 (stereo unspecified)
- IC50 [17]: 1.5 µM (active)

Structure (SMILES): N#Cc1c(O)ncc(/C=N/N=C/c2ccccc2)c1Nc1ccccc1
- IC50 (Beta-galactosidase): > 80 µM (inactive)

Structure (SMILES): COc1ccc2cc(C(N)=O)/c(=N/c3ccccc3)oc2c1
- IC50 [17]: > 10 µM (inactive)
